Experimental findings from patent publication US10968193B2, “Antidiabetic bicyclic compounds” (Merck Sharp & Dohme Corp., priority 2014, dated 2021) are described below.

Molecules are shown by their SMILES.

By EC50 is commonly meant the midpoint of the concentration-response curve. A low value points to greater potency.

The target of the first test is T1, human GPR40 (Homo sapiens, UniProt O14842).
T1 construct: expressed in transfected cells; host or cells: HEK cells stably expressing the aequorin reporter
T1 sequence (O14842 whole entry): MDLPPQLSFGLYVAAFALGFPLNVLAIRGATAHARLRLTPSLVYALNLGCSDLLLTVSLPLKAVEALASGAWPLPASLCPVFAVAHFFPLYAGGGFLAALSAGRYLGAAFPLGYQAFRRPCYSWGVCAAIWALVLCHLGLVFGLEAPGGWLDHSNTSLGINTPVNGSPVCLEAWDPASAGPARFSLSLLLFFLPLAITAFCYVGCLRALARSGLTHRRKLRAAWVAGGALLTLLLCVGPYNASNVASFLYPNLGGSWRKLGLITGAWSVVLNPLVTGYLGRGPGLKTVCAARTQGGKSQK
The test is described as follows: Inositol Phosphate Turnover (IP1) Assay 2. Type of test: cell-based. The note with it: HEK cells stably expressing human GPR40; 15,000 cells per well; compound acoustically transferred; CisBio IP-One kit. The gist of the method: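 HEK cells stably expressing human GPR40, plated 16 h beforehand, were exposed to compound in stimulation buffer for 60 min at 37 °C. IP1 accumulation was detected by HTRF (665/620 nm ratio) after 60 min with detection reagents and converted to IP1 concentration from a same-day standard curve.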
As to `COc1cc(-c2ccc(C3CCc4ccc([C@H](C5CCC5)[C@H](C)C(=O)O)cc4O3)cc2CN2CCCC2)c(F)cn1` (single isomer, unassigned) [Example 93], the midpoint of the response, the EC50, lay at 2.9 nM. `COc1cc(-c2ccc(C3CCc4ccc([C@H](C5CC5)[C@H](C)C(=O)O)cc4O3)cc2CN2CCC(C(F)(F)F)C2)c(F)cn1` (some centres unmarked) [Example 14] displayed an EC50 of 0.87 nM. As for `COc1cc(-c2ccc(C3CCc4ccc([C@H](C5CC5)[C@H](C)C(=O)O)cc4O3)cc2C(C)N2CCCC2)c(F)cn1` (stereo partly drawn) [Example 84, Methyl (2S,3R)-3-cyclopropyl-3-(2-(4-(5-fluoro-2-methoxypyridin-4-yl)-3-(1-(pyrrolidin-1-yl)ethyl)phenyl)chroman-7-yl)-2-methylpropanoic acid], the EC50 was 2 nM. With `COc1cc(-c2ccc([C@H]3CCc4ccc([C@H](C5CC5)[C@H](C)C(=O)O)cc4O3)cc2CN2CCCCC2)c(F)cn1` [Example 165], the EC50 worked out at 3.9 nM. `COc1cc(-c2ccc(C3CCc4ccc([C@H](C5CC5)[C@H](C)C(=O)O)cc4O3)cc2CN2CC(C)C2)c(F)cn1` (mixture of isomers) [Example 35]: the EC50 was determined as 22 nM. Consider `COc1cc(-c2ccc([C@@H]3CCc4ccc([C@H](C5CC5)[C@H](C)C(=O)O)cc4O3)cc2CNCC(F)(F)F)c(F)cn1` [Example 150], for which the response was half-maximal at 1 nM (EC50). On the same count and under the same terms, to `CNCc1cc([C@@H]2CCc3ccc([C@H](C4CC4)[C@H](C)C(=O)O)cc3O2)ccc1-c1cc(OC)ncc1F` [Example 34, Sodium (2S,3R)-3-cyclopropyl-3-((S)-2-(4-(5-fluoro-2-methoxypyridin-4-yl)-3-((methylamino)methyl)phenyl)chroman-7-yl)-2-methylpropanoate] belongs 1.9 nM; to `COc1cc(-c2ccc(C3CCc4ccc([C@H](C5CC5)[C@H](C)C(=O)O)cc4O3)cc2CN2CCCC2)c(F)cn1` (mixture of isomers) [Example 9], 4.3 nM; to `COC[C@H]1CCCN1Cc1cc([C@@H]2CCc3ccc([C@H](C4CC4)[C@H](C)C(=O)O)cc3O2)ccc1-c1cc(OC)ncc1F` [Example 164], 1.6 nM. Regarding `COC[C@@H]1CCCN1Cc1cc([C@@H]2CCc3ccc([C@H](C4CC4)[C@H](C)C(=O)O)cc3O2)ccc1-c1cc(OC)ncc1F` [Example 134, (2S, 3R)-3-cyclopropyl-3-((S)-2-(4-(5-fluoro-2-methoxypyridin-4-yl)-3-(((S)-2-(methoxymethyl)pyrrolidin-1-yl)methyl)phenyl)chroman-7-yl)-2-methylpropanoic acid], the EC50 is 0.8 nM. `COc1cc(-c2ccc(C3CCc4ccc([C@H](C5CC5)[C@H](C)C(=O)O)cc4O3)cc2CN2CC[C@@H](F)C2)c(F)cn1` (single isomer, unassigned) [Example 23] displayed a concentration giving a half-maximal response (EC50) of 1.7 nM. Regarding `COc1cc(-c2ccc(C3CCc4ccc([C@H](C5CC5)[C@H](C)C(=O)O)cc4O3)cc2CN2CC[C@@H](F)C2)c(F)cn1` (single isomer, unassigned) [Example 24], it took 2.2 nM to reach a half-maximal effect (EC50).

`COc1cc(-c2ncc([C@@H]3CCc4ccc([C@H](C5CC5)[C@H](C)C(=O)O)cc4O3)nc2CN2CCCC2)c(F)cn1` (single isomer, unassigned) [Example 110a] had an EC50 of 446 nM.

The compound `COc1cc(-c2ccc(C3CCc4ccc([C@H](C5CC5)[C@H](C)C(=O)O)cc4O3)cc2CN(C)C)c(F)cn1` (single isomer, unassigned) [Example 1b] gave an EC50 of 2.9 nM.

In turn, `COc1cc(-c2ccc(C3CCc4ccc([C@H](C5CC5)[C@H](C)C(=O)O)cc4O3)cc2CN2C3CCC2CC3)c(F)cn1` (some centres unmarked) [Example 69] returned an EC50 of 2.6 nM. For `CNCc1cc(C2CCc3ccc([C@H](C4CC4)[C@H](C)C(=O)O)cc3O2)ccc1-c1cc(OC)ncc1F` (mixture of isomers) [Example 4], a half-maximal response (EC50) required 310 nM. `COc1cc(-c2ccc([C@H]3CCc4ccc([C@H](C5CC5)[C@H](C)C(=O)O)cc4O3)cc2CN2CCC2(C)C)c(F)cn1` [Example 156] had a half-maximal effective concentration (EC50) of 8.3 nM.

As for `COc1cc(-c2ccc(C3CCc4ccc([C@H](C5CC5)[C@H](C)C(=O)O)cc4O3)cc2CN2CC[C@H](OC)C2)c(F)cn1` (some centres unmarked) [Example 19], a half-maximal effect (EC50) was put at 6.4 nM. The compound `COc1cc(-c2ccc(C3CCc4ccc([C@H](C5CC5)[C@H](C)C(=O)O)cc4O3)cc2CN2CC(F)(F)C2)c(F)cn1` (mixture of isomers) [Example 61] gave an EC50 of 2 nM.

For another test, the target named is T1, human GPR40. The test is described as follows: Inositol Phosphate Turnover (IP1) Assay 1. The note with it: HEK cells stably expressing human GPR40; 15,000 cells per well; compound transferred via pocket tip; CisBio IP-One kit. The class given is cell-based. The procedure: Human and mouse GPR40 stable cell-lines were generated in CHO cells stably expressing NFAT BLA (Beta-lactamase). A human GPR40 stable cell-line was generated in HEK cells stably expressing the aequorin expressing reporter. The expression plasmids were transfected using lipofectamine (Life Technologies) following manufacturer's instructions. Stable cell-lines were generated following drug selection.
Inositol Phosphate Turnover (IP1) Assay 1:
The assay was performed in 384-well format. HEK cells stably expressing human GPR40 were plated at 15,000 cells per well in growth medium (DMEM/10% fetal calf serum). Cell plates were then incubated 16 hours at 37 degrees in a 5% CO2 incubator.
Measurement of Inositol Phosphate Turnover (IP1) was performed using the CisBio IP-One kit (Part number 62IPAPEB). After the 16 hour incubation, the cells were washed with HEPES buffer and 10 ul of stimulation buffer (prepared as described in the kit) is added to each well. In a separate plate, compounds were diluted in DMSO (400-fold over the final concentration in the assay well) and 25 nl was transferred via pocket tip to the appropriate well in the assay cell plate. The plates were then incubated for 60 minutes at 37 degrees. 10 ul of detection buffer (also prepared as described in the IP-One kit) was added to each well and the plates were incubated for 60 minutes in the dark. The plates were then read in a Perkin Elmer EnVision or equivalent reader able to measure FRET. Fluorescent ratio of emission at 665 and 620 nm was then converted to IP1 concentration by back calculating from an IP1 standard curve prepared at the time of the assay.
Compound `COc1ccc(F)c(-c2ccc(C3CCc4ccc([C@H](C5CC5)[C@H](C)C(=O)O)cc4O3)cc2CN)c1` (mixture of isomers) [Example 2] displayed an EC50 of 2990 nM. In the case of `COc1cc(-c2ccc(C3CCc4ccc([C@H](C5CC5)[C@H](C)C(=O)O)cc4O3)cc2CN2CCC2)c(F)cn1` (mixture of isomers) [Example 10], the EC50 is 193 nM. Compound `COc1cc(-c2ccc(C3CCc4ccc([C@H](C5CC5)[C@H](C)C(=O)O)cc4O3)cc2C(C)N(C)C)c(F)cn1` (some centres unmarked) [Example 3] gave an EC50 of 18 nM. Still for that read-out and setting: the result for `COc1cc(-c2ccc(C3CCc4ccc([C@H](C5CC5)[C@H](C)C(=O)O)cc4O3)cc2CN(C)C)c(F)cn1` (stereo partly drawn) [Example 1, (2S,3R)-3-cyclopropyl-3-(2-(3-((dimethylamino)methyl)-4-(5-fluoro-2-methoxypyridin-4-yl)phenyl)chroman-7-yl)-2-methylpropanoic acid] reads 8.6 nM.
